Results taken from ChEMBL document CHEMBL1671742, “Overexpression of the adeB gene in clinical isolates of tigecycline-nonsusceptible Acinetobacter baumannii without insertion mutations in adeRS” (Antimicrob Agents Chemother, 2010).

How the values were obtained:
[1] = system: Acinetobacter baumannii; assay: Antibacterial activity against intI1-positive tigecycline-susceptible Acinetobacter baumannii AB018 with PFGE subgroup G containing carbapenemase OXA-58 and OXA-51 by Etest; type: functional
[2] = system: Acinetobacter baumannii; assay: Antibacterial activity against intI1-positive tigecycline-susceptible Acinetobacter baumannii AB039 with PFGE subgroup B1 containing carbapenemase OXA-23 and OXA-51 by Etest; type: functional
[3] = system: Acinetobacter baumannii; assay: Antibacterial activity against intI1-positive tigecycline-susceptible Acinetobacter baumannii AB095 with PFGE subgroup E containing carbapenemase OXA-23 and OXA-51 by Etest; type: functional
[4] = system: Acinetobacter baumannii; assay: Antibacterial activity against intI1-positive tigecycline-susceptible Acinetobacter baumannii AB110 with PFGE subgroup C containing carbapenemase OXA-51 by Etest; type: functional
[5] = system: Acinetobacter baumannii; assay: Antibacterial activity against intI1-positive tigecycline-intermediate Acinetobacter baumannii AB127 with PFGE subgroup I containing carbapenemase OXA-23 and OXA-51 by Etest; type: functional
[6] = system: Acinetobacter baumannii; assay: Antibacterial activity against intI1-positive tigecycline-intermediate Acinetobacter baumannii AB166 with PFGE subgroup A3 containing carbapenemase OXA-51 by Etest; type: functional
[7] = system: Acinetobacter baumannii; assay: Antibacterial activity against intI1-negative tigecycline-intermediate Acinetobacter baumannii AB098 with PFGE subgroup F containing carbapenemase OXA-23 and OXA-51 by Etest; type: functional
[8] = system: Acinetobacter baumannii; assay: Antibacterial activity against intI1-positive tigecycline-intermediate Acinetobacter baumannii AB099 with PFGE subgroup H containing carbapenemase OXA-23 and OXA-51 by Etest; type: functional
[9] = system: Acinetobacter baumannii; assay: Antibacterial activity against intI1-positive tigecycline-resistant Acinetobacter baumannii AB106 with PFGE subgroup B1 containing carbapenemase OXA-23 and OXA-51 by Etest; type: functional
[10] = system: Acinetobacter baumannii; assay: Antibacterial activity against intI1-positive tigecycline-resistant Acinetobacter baumannii AB113 with PFGE subgroup B1 containing carbapenemase OXA-23 and OXA-51 by Etest; type: functional
[11] = system: Acinetobacter baumannii; assay: Antibacterial activity against intI1-positive tigecycline-resistant Acinetobacter baumannii AB118 with PFGE subgroup B2 containing carbapenemase OXA-23 and OXA-51 by Etest; type: functional
[12] = system: Acinetobacter baumannii; assay: Antibacterial activity against intI1-positive tigecycline-resistant Acinetobacter baumannii AB125 with PFGE subgroup A1 containing carbapenemase OXA-23 and OXA-51 by Etest; type: functional
[13] = system: Acinetobacter baumannii; assay: Antibacterial activity against intI1-positive tigecycline-resistant Acinetobacter baumannii AB134 with PFGE subgroup A2 containing carbapenemase OXA-23 and OXA-51 by Etest; type: functional
[14] = system: Acinetobacter baumannii; assay: Antibacterial activity against intI1-positive tigecycline-resistant Acinetobacter baumannii AB168 with PFGE subgroup A1 containing carbapenemase OXA-23 and OXA-51 by Etest; type: functional
[15] = system: Acinetobacter baumannii; assay: Antibacterial activity against intI1-positive tigecycline-resistant Acinetobacter baumannii AB173 with PFGE subgroup B1 containing carbapenemase OXA-23 and OXA-51 by Etest; type: functional
[16] = system: Acinetobacter baumannii; assay: Antibacterial activity against intI1-positive tigecycline-resistant Acinetobacter baumannii AB097 with PFGE subgroup B1 containing carbapenemase OXA-23 and OXA-51 by Etest; type: functional
[17] = system: Acinetobacter baumannii; assay: Antibacterial activity against intI1-positive tigecycline-resistant Acinetobacter baumannii AB096 with PFGE subgroup B1 containing carbapenemase OXA-23 and OXA-51 by Etest; type: functional
[18] = system: Acinetobacter baumannii; assay: Antibacterial activity against intI1-positive tigecycline-susceptible Acinetobacter baumannii AB018 with PFGE subgroup G containing carbapenemase OXA-58 and OXA-51 by Etest in presence of 64 mg/liter 1-(1-naphthylmethyl)-piperazine; type: functional
[19] = system: Acinetobacter baumannii; assay: Antibacterial activity against intI1-positive tigecycline-susceptible Acinetobacter baumannii AB039 with PFGE subgroup B1 containing carbapenemase OXA-23 and OXA-51 by Etest in presence of 64 mg/liter 1-(1-naphthylmethyl)-piperazine; type: functional
[20] = system: Acinetobacter baumannii; assay: Antibacterial activity against intI1-positive tigecycline-susceptible Acinetobacter baumannii AB095 with PFGE subgroup E containing carbapenemase OXA-23 and OXA-51 by Etest in presence of 64 mg/liter 1-(1-naphthylmethyl)-piperazine; type: functional
[21] = system: Acinetobacter baumannii; assay: Antibacterial activity against intI1-positive tigecycline-susceptible Acinetobacter baumannii AB110 with PFGE subgroup C containing carbapenemase OXA-51 by Etest in presence of 64 mg/liter 1-(1-naphthylmethyl)-piperazine; type: functional
[22] = system: Acinetobacter baumannii; assay: Antibacterial activity against intI1-positive tigecycline-intermediate Acinetobacter baumannii AB127 with PFGE subgroup I containing carbapenemase OXA-23 and OXA-51 by Etest in presence of 64 mg/liter 1-(1-naphthylmethyl)-piperazine; type: functional
[23] = system: Acinetobacter baumannii; assay: Antibacterial activity against intI1-positive tigecycline-intermediate Acinetobacter baumannii AB166 with PFGE subgroup A3 containing carbapenemase OXA-51 by Etest in presence of 64 mg/liter 1-(1-naphthylmethyl)-piperazine; type: functional
[24] = system: Acinetobacter baumannii; assay: Antibacterial activity against intI1-negative tigecycline-intermediate Acinetobacter baumannii AB098 with PFGE subgroup F containing carbapenemase OXA-23 and OXA-51 by Etest in presence of 64 mg/liter 1-(1-naphthylmethyl)-piperazine; type: functional
[25] = system: Acinetobacter baumannii; assay: Antibacterial activity against intI1-positive tigecycline-intermediate Acinetobacter baumannii AB099 with PFGE subgroup H containing carbapenemase OXA-23 and OXA-51 by Etest in presence of 64 mg/liter 1-(1-naphthylmethyl)-piperazine; type: functional
[26] = system: Acinetobacter baumannii; assay: Antibacterial activity against intI1-positive tigecycline-resistant Acinetobacter baumannii AB106 with PFGE subgroup B1 containing carbapenemase OXA-23 and OXA-51 by Etest in presence of 64 mg/liter 1-(1-naphthylmethyl)-piperazine; type: functional
[27] = system: Acinetobacter baumannii; assay: Antibacterial activity against intI1-positive tigecycline-resistant Acinetobacter baumannii AB113 with PFGE subgroup B1 containing carbapenemase OXA-23 and OXA-51 by Etest in presence of 64 mg/liter 1-(1-naphthylmethyl)-piperazine; type: functional
[28] = system: Acinetobacter baumannii; assay: Antibacterial activity against intI1-positive tigecycline-resistant Acinetobacter baumannii AB118 with PFGE subgroup B2 containing carbapenemase OXA-23 and OXA-51 by Etest in presence of 64 mg/liter 1-(1-naphthylmethyl)-piperazine; type: functional
[29] = system: Acinetobacter baumannii; assay: Antibacterial activity against intI1-positive tigecycline-resistant Acinetobacter baumannii AB125 with PFGE subgroup A1 containing carbapenemase OXA-23 and OXA-51 by Etest in presence of 64 mg/liter 1-(1-naphthylmethyl)-piperazine; type: functional
[30] = system: Acinetobacter baumannii; assay: Antibacterial activity against intI1-positive tigecycline-resistant Acinetobacter baumannii AB134 with PFGE subgroup A2 containing carbapenemase OXA-23 and OXA-51 by Etest in presence of 64 mg/liter 1-(1-naphthylmethyl)-piperazine; type: functional
[31] = system: Acinetobacter baumannii; assay: Antibacterial activity against intI1-positive tigecycline-resistant Acinetobacter baumannii AB168 with PFGE subgroup A1 containing carbapenemase OXA-23 and OXA-51 by Etest in presence of 64 mg/liter 1-(1-naphthylmethyl)-piperazine; type: functional
[32] = system: Acinetobacter baumannii; assay: Antibacterial activity against intI1-positive tigecycline-resistant Acinetobacter baumannii AB173 with PFGE subgroup B1 containing carbapenemase OXA-23 and OXA-51 by Etest in presence of 64 mg/liter 1-(1-naphthylmethyl)-piperazine; type: functional
[33] = system: Acinetobacter baumannii; assay: Antibacterial activity against intI1-positive tigecycline-resistant Acinetobacter baumannii AB097 with PFGE subgroup B1 containing carbapenemase OXA-23 and OXA-51 by Etest in presence of 64 mg/liter 1-(1-naphthylmethyl)-piperazine; type: functional
[34] = system: Acinetobacter baumannii; assay: Antibacterial activity against intI1-positive tigecycline-resistant Acinetobacter baumannii AB096 with PFGE subgroup B1 containing carbapenemase OXA-23 and OXA-51 by Etest in presence of 64 mg/liter 1-(1-naphthylmethyl)-piperazine; type: functional
[35] = system: Acinetobacter baumannii; assay: Antibacterial activity against Multidrug-resistant Acinetobacter baumannii by broth microdilution method; type: functional
[36] = system: Acinetobacter baumannii; assay: Antibacterial activity against Multidrug-resistant Acinetobacter baumannii clinical isolate by broth microdilution method; type: functional
[37] = system: Serum; assay: Steady state drug concentration in human serum; type: ADME, cell-free

CN(C)c1cc(NC(=O)CNC(C)(C)C)c(O)c2c1C[C@H]1C[C@H]3[C@H](N(C)C)C(O)=C(C(N)=O)C(=O)[C@@]3(O)C(O)=C1C2=O [TIGECYCLINE]
6 µg/mL: MIC [7] | MIC [8] | MIC [26] | MIC [28]
8 µg/mL: MIC [9] | MIC [10] | MIC [11] | MIC [12] | MIC [13] | MIC [14] | MIC [15] | MIC [29] | MIC [34]
32 µg/mL: MIC90 [36]
3 µg/mL: MIC [20] | MIC [30]
4 µg/mL: MIC [5] | MIC [6] | MIC [19] | MIC [21] | MIC [22] | MIC [23] | MIC [24] | MIC [25] | MIC [27] | MIC [31] | MIC [32] | MIC [33] | MIC90 [35]
2 µg/mL: MIC [1] | MIC [2] | MIC [3] | MIC [4] | MIC [18] | MIC50 [35]
16 µg/mL: MIC [17] | MIC50 [36]
0.63 mg/L: Css [37]
12 µg/mL: MIC [16]

C[C@@H](O)[C@H]1C(=O)N2C(C(=O)O)=C(SCCNC=N)C[C@H]12 [IMIPENEM ANHYDROUS]
32 µg/mL: MIC [3] | MIC [5] | MIC [10] | MIC [15]
6 µg/mL: MIC [6]
1.5 µg/mL: MIC [4]
8 µg/mL: MIC [1]
> 32 µg/mL: MIC [2] | MIC [7] | MIC [8] | MIC [9] | MIC [11] | MIC [12] | MIC [13] | MIC [14] | MIC [16] | MIC [17]

CCN1CCN(C(=O)N[C@@H](C(=O)N[C@@H]2C(=O)N3[C@@H]2SC(C)(C)[C@@H]3C(=O)O)c2ccccc2)C(=O)C1=O [PIPERACILLIN]
> 128 µg/mL: MIC [1] | MIC [2] | MIC [3] | MIC [4] | MIC [5] | MIC [6] | MIC [7] | MIC [8] | MIC [9] | MIC [10] | MIC [11] | MIC [12] | MIC [13] | MIC [14] | MIC [15] | MIC [16] | MIC [17]

C[C@H]1COc2c(N3CCN(C)CC3)c(F)cc3c(=O)c(C(=O)O)cn1c23.C[C@H]1COc2c(N3CCN(C)CC3)c(F)cc3c(=O)c(C(=O)O)cn1c23.O [LEVOFLOXACIN]
12 µg/mL: MIC [4]
> 32 µg/mL: MIC [3] | MIC [5] | MIC [6] | MIC [7] | MIC [8] | MIC [10] | MIC [11] | MIC [12] | MIC [13] | MIC [14] | MIC [15] | MIC [16] | MIC [17]
32 µg/mL: MIC [9]
6 µg/mL: MIC [1]

C[C@]1(Cn2ccnn2)[C@H](C(=O)O)N2C(=O)C[C@H]2S1(=O)=O [TAZOBACTAM]
4 µg/mL: MIC [1] | MIC [2] | MIC [3] | MIC [4] | MIC [5] | MIC [6] | MIC [7] | MIC [8] | MIC [9] | MIC [10] | MIC [11] | MIC [12] | MIC [13] | MIC [14] | MIC [15] | MIC [16] | MIC [17]
